This note sets out measurements from patent US9868722B2, “Monocyclic pyrimidine/pyridine compounds as inhibitors of P97 complex” (Cleave Biosciences, Inc., priority 2013, dated 2018).

For data set [1], the system named is K48 poly-Ubiquitin accumulation in A549 cells. Put plainly: A549 K48 poly-ubiquitin accumulation immunofluorescence assay. The data set is classed as cell-based. To be noted: Homo sapiens; A549 cells, 6 hr incubation, K48-Ub antibody; read-out: A549 K48 IC50. The protocol: Image-analysis is used to generate quantitative data from these assays that can be fit to a four-parameter sigmoid curve to derive IC50 values. Substrates of the ubiquitin-proteasome system, such as p53, are monitored after tumor cell lines are incubated with compounds for several hours. Accumulation of these proteins indicates an inhibition of proteasome-mediated degradation. Accumulation of lysine-48 chain linkage of poly-ubiquitin is also monitored by immunofluorescence as an indicator of ubiquitin-proteasome system inhibition. Both LC3 and SQSTM1 are mediators of autophagy. The localization and amounts of these proteins are monitored by immunofluorescence and report on the activity and inhibition of autophagy in response to p97 inhibition.
(§1) Plate 25 μL of A549 cells in every well of 384-well plate using multidrop.
Two (2) black plates for IF at 2500 cells/well
Serial dilute compounds with a 10 point 2-fold serial dilution in DMSO to make 250× stock compound solution Dilute compounds 1:125 in cell culture media to make a 2× solution Add 25 μl of dilution compounds to cell plates in well duplicates Put cells back in incubator (6 hr incubation for black plates, 72 hr incubation for white plates).
Incubate cells in black plates with compound at 37 degC for 6 hrs. add 15 μL of 16% Paraformaldehyde (PFA) directly into media of each well, incubate at room temp for 5 min, flick plate and wash in 50 μL of PBS block in 50 μL of Blocking Buffer for 30 minutes (can go up to several hours) Blocking buffer: 1×PBS, 1% BSA, 0.3% Triton-X100, Hoechst (1:10,000) incubate in 25 μL of primary antibody in blocking buffer at 4 degC over night […]
Secondary Antibodies: • AlexaFluor488 Goat anti-Rabbit 1:2,000 (Life Tech A11008) • AlexaFluor555 Goat anti-Mouse 1:2,000 (Life Tech A21422) incubate in 25 μl of secondary antibody (1:2,000) in blocking buffer for 1-2 hrs at room temp (alexafluor488-anti-Rabbit/alexafluor555-anti-Mouse) Image plates in high content microscope with 405 nm, 488 nm and 555 nm filters Nuclear counts and cellular intensities of each markers are measured using Hoechst as a nuclear marker with an automated image analysis protocol using Matlab software (Math Works) The results are reported on the following Table I for Examples A-EE and the E1-E4 compounds as 50 percent Inhibitory concentration at candidate doses of less than 1 μM, less than 3 μM and less than 10 μM for both of the K48 antibody and the p53 (CTG) antibody assays

A further data set relates to A549 cells. Put plainly: Cultured cancer cell viability assay (cell titer glo, A549 CTG). The data set is classed as cell-based. Particulars: Homo sapiens; A549 cells, 72 hr incubation, cell titer glo; read-out: A549 CTG IC50.
From the text: Anti-tumor effects are monitored in cultured cancer cells after several days of compound treatment. The cell titer glo assay (Promega) measures the amount of ATP present as a proxy for cellular viability. Cellular counting is done using high-content microscopy followed by image analysis. A hanging drop 3D-culture system (3D Biomatrix) is used followed by cell titer glo to measure growth in a tumor-like environment.
The cellular assay provides information about the anti-neoplastic activity of the compounds of the invention. The compounds are tested against cultured cancer cells to determine whether or not the compounds of the invention are capable of intersecting with cancer cells to minimize or eliminate such cells. The assay involves establishing colonies of such cells and then treating them with the test compound under specified conditions and analysis regime to determine results.
as §1
One (1) white plate for viability at 500 cells/well.
Serial dilute compounds with a 10 point 2-fold serial dilution in DMSO to make 250× stock compound solution
Dilute compounds 1:125 in cell culture media to make a 2× solution Add 25 μl of dilution compounds to cell plates in well duplicates
Put cells back in incubator (6 hr incubation for black plates, 72 hr incubation for white plates).
Thaw an aliquot of frozen cell titer glo (Promega G7572) at room temperature.
Add 45 mL of NaCl/PBS solution to 5 ml of cell titer glo (10×).
Remove white plates from incubator, leave at room temp for 30 minutes.
Add 25 μl of diluted cell titer glo to each well.
Shake plate for >1 minute.
Incubate plate for >5 minutes to stabilize luminescence. • Luminescence is stable for up to 3 hours.
Read luminescence on plate reader
The results are reported on the following Table I for Examples A-EE and the E1-E4 compounds as 50 percent Inhibitory concentration at candidate doses of less than 1 μM, less than 3 μM and less than 10 μM for both of the K48 antibody and the p53 (CTG) antibody assays
In general terms: In ATP-based viability assays light output follows the ATP content of the culture.

The target of another data set is p97 (Homo sapiens, UniProt P55072). Put plainly: P97 ATPase biochemical assay (ADP Glo). Particulars: 20 nM p97, 20 uM ATP, 37 degC 15 min. The protocol: The ATPase assay is performed according the following protocol: Purified enzyme (20 nM p97), substrate (20 μM ATP) and a dose titration of compounds are mixed in buffer (50 mM TRIS pH 7.5, 20 mM MgCl2, 0.02% TX-100, 1 mM DTT, 0.2% (v/v) glycerol) and incubated at 37° C. for 15 minutes. The reaction is terminated and the level of product generated is measured using the ADP Glo Assay Kit (Promega, Madison Wis.). Plotting product generated versus compound concentration and using a four-parameter fit model generates an IC50 value for each compounds.
p97, sequence (P55072 whole entry): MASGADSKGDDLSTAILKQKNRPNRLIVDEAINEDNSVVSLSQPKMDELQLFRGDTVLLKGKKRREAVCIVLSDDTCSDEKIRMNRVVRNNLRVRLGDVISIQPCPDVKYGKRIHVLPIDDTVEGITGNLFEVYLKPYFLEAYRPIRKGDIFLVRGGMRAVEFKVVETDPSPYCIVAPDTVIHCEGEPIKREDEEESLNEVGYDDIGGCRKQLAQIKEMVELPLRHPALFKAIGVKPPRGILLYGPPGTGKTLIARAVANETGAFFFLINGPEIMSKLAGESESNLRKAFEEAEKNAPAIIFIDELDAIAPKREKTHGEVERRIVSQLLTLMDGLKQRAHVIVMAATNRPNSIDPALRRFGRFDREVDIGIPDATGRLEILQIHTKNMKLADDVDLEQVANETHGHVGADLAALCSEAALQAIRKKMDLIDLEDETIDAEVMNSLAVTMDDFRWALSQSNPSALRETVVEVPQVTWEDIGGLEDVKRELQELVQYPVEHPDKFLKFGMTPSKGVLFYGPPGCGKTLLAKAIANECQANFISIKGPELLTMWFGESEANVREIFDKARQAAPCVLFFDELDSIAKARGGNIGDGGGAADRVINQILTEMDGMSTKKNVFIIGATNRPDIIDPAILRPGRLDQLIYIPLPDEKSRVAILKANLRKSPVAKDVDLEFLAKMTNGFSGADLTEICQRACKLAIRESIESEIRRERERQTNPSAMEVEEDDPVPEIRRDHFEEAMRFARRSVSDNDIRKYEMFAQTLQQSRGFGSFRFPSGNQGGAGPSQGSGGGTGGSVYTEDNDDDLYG
The p97 assay is an initial screening assay used to determine inhibitory activity of the monocyclic pyrimidine compounds of the invention against the p97 complex. As discussed above, inhibition of activity of the p97 proteosome complex can enable apoptosis and cause elimination of neoplastic cells (cancer cells). The method follows that of Christianson in Nat. Cell Biol., (2011) 14:93.
Assay Buffer is a mixture of 50 mM TRIS pH 7.5, 20 mM MgCl2, 0.02% TX-100, 1 mM DTT and 0.2% (v/v) Glycerol. The well plate is Platetype: Corning 3674, 384w plate. The identification kit is an ADP glo kit (Promega): stop buffer, detection reagent.
Serial dilute compound in DMSO in a 1:3.33-fold 10 point serial dilution.
0.5 μL compound serial diluted in DMSO (Final Conc. 10%)
2 μL ATP (Final Conc.=20 uM, diluted in assay buffer)
2.5 μL p97 (Final Conc.=20 nM, diluted in assay buffer)
Incubate at 37 degC for 15 min.
Add 5 μL of stop buffer, incubate at RT for 40 min.
Add 10 μL of detection reagent, incubate at RT for 30 min.
Read luminescence on Envision plate reader. • Upon obtaining the data from the luminescence reading, the data may be analyzed as follows:
Normalize luminescence data using no enzyme (full inhibition) and no compound (no inhibition) controls. Plot normalized luminescence data against log-transformed concentration values and fit to a sigmoidal curve to determine IC50 values (done in Collaborative Drug Discovery software).
The results are reported on the following Table for Examples A-EE and the E1-E4 compounds as 50 percent Inhibitory concentration at candidate doses of less than 30 nM, less than 100 nM, less than 300 nM and less than 1000 nM for the p97 inhibition assay.

In another data set the test system is Caco-2 cell monolayers. Particulars: pH 7.4, range over 12 inter-day experiments.

Consider `Cc1cc2c(C(N)=O)cccc2n1-c1ncc(C(C)O)c(NCc2ccccc2)n1` (centres unmarked) [Example 34, 1-[4-(benzylamino)-5-(1-hydroxyethyl)pyrimidin-2-yl]-2-methyl-1H-indole-4-carboxamide], for which the figures for the IC50 (in data set [1]; in the data set on A549 cells; on p97) were below 3000 nM, below 3000 nM and below 30 nM, respectively.

With `Cc1cc2c(C(N)=O)cccc2n1-c1ncc(C(C)N)c(NCc2ccccc2)n1` (centres unmarked) [Example 35, 1-[5-(1-aminoethyl)-4-(benzylamino)pyrimidin-2-yl]-2-methyl-1H-indole-4-carboxamide], the figures for the IC50 (in data set [1]; in the data set with A549 cells; against p97) were below 10000 nM, below 10000 nM and below 100 nM, respectively.

Take `CNCc1nc(-n2c(C)cc3c(C(N)=O)cccc32)nc(NCc2ccccc2)c1C` [Example 36, 1-[4-(benzylamino)-5-methyl-6-[(methylamino)methyl]pyrimidin-2-yl]-2-methyl-1H-indole-4-carboxamide]: the values for the IC50 (in data set [1]; with A549 cells; against p97) were below 10000 nM, below 10000 nM and below 100 nM, respectively.

As to `COc1cnc(-n2c(C)cc3c(CN)cccc32)nc1NCc1ccccc1` [Example 37, 2-[4-(aminomethyl)-2-methyl-1H-indol-1-yl]-N-benzyl-5-methoxypyrimidin-4-amine], the IC50 – broadly, the concentration that inhibits the measured activity by half – in data set [1] is below 3000 nM; in the data set with A549 cells, below 10000 nM; against p97 it was below 1000 nM.

As to `CC(C)NCC(O)COc1cccc2ccccc12` (centres unmarked) [Propranolol], the “Peff (×E-6 cm/sec) in pH 7.4 Caco-2, A B, Range” value with Caco-2 cell monolayers (A to B) was 18.50-36.80 ×E-6 cm/sec. Besides, in the data set on Caco-2 cell monolayers (B to A), the “Peff (×E-6 cm/sec) in pH 7.4 Caco-2, B A, Range” value was 16.30-31.40 ×E-6 cm/sec.
